Assay results reported in the supplement of paper PMC9663587.

Tests used:
[1] = compound: COc1cc2nccc(Oc3ccc(NC(=O)C4(C(=O)Nc5ccc(F)cc5)CC4)cc3)c2cc1OC [Cabozantinib]
[2] = compound: CC(=O)O[C@H]1C(=O)[C@@]2(C)[C@H]([C@H](OC(=O)c3ccccc3)[C@]3(O)C[C@H](OC(=O)[C@H](O)[C@@H](NC(=O)c4ccccc4)c4ccccc4)C(C)=C1C3(C)C)[C@]1(OC(C)=O)CO[C@@H]1C[C@@H]2O [Paclitaxel]
[3] = compound: CC(=O)c1c(C)c2cnc(Nc3ccc(N4CCN(CCOCCOCCOCCNC(=O)COc5cccc6c5C(=O)N(C5CCC(=O)NC5=O)C6=O)CC4)cn3)nc2n(C2CCCC2)c1=O [BSJ-03-123]
[4] = compound: CCc1cnn2c(NCc3ccc[n+]([O-])c3)cc(N3CCCC[C@H]3CCO)nc12
[5] = compound: O=C(CCCCCCC(=O)Nc1ccccc1)NO [Vorinostat]
[6] = compound: CC1(CCN(CC1)C2=CN=C(C(=N2)N)C3=C(C(=CC=C3)Cl)Cl)N [SHP099]
[7] = compound: Nc1cc(C(F)(F)F)c(-c2cc(N3CCOCC3)nc(N3CCOCC3)n2)cn1 [Buparlisib/NVP-BKM120]
[8] = compound: CCN1CCN(Cc2ccc(Nc3ncc(F)c(-c4cc(F)c5nc(C)n(C(C)C)c5c4)n3)nc2)CC1
[9] = compound: NC1(C(=O)N[C@@H](CCO)c2ccc(Cl)cc2)CCN(c2nc[nH]c3nccc2-3)CC1 [AZD5363]
[10] = compound: CN1CC[C@H](c2c(O)cc(O)c3c(=O)cc(-c4ccccc4Cl)oc23)[C@H](O)C1 [Flavopiridol]; assay: GR value, 72 h; higher = faster growth (1 = untreated, <0 = killing);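 note: breast cancer and non-malignant breast epithelial lines, nine half-log doses, viable cells counted by Hoechst and LIVE/DEAD dye imaging versus time-zero plates and DMSO controls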
[11] = compound: CCc1cnn2c(NCc3ccc[n+]([O-])c3)cc(N3CCCC[C@H]3CCO)nc12; assay: as above
[12] = compound: C=CC(=O)Nc1ccc(C(=O)Nc2[nH]nc3c2CN(C(=O)N[C@H](CN(C)C)c2ccccc2)C3(C)C)cc1 [YKL-5-124]; assay: as above
[13] = compound: CN(C)C(=O)c1cc2cnc(Nc3ccc(N4CCNCC4)cn3)nc2n1C1CCCC1 [LEE011/Ribociclib]; assay: as above
[14] = compound: CC(=O)c1c(C)c2cnc(Nc3ccc(N4CCNCC4)cn3)nc2n(C2CCCC2)c1=O; assay: as above
[15] = compound: CN(C)C/C=C/C(=O)Nc1ccc(C(=O)Nc2cccc(Nc3ncc(Cl)c(-c4c[nH]c5ccccc45)n3)c2)cc1 [THZ1]; assay: as above
[16] = compound: CCN1CCN(Cc2ccc(Nc3ncc(F)c(-c4cc(F)c5nc(C)n(C(C)C)c5c4)n3)nc2)CC1; assay: as above
[17] = compound: CN(C)C/C=C/C(=O)Nc1ccc(C(=O)N2CCC[C@@H](Nc3ncc(Cl)c(-c4c[nH]c5ccccc45)n3)C2)cc1 [THZ531]; assay: as above
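Throughout, for GR50, 72 h: breast cancer and non-malignant breast epithelial cell lines, Deep Dye Drop or Dye Drop imaging, nine half-log doses, GR normalized to time-zero plates and DMSO-only controls.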

SUM1315
GR50, 72 h [1]: 4.52 µM | GR50, 72 h [2]: 0.00246 µM | GR50, 72 h [3]: 2.05 µM | GR50, 72 h [4]: 0.0109 µM | GR50, 72 h [5]: 1.76 µM | GR50, 72 h [6]: > 10 µM | GR50, 72 h [7]: 0.402 µM | GR50, 72 h [8]: 0.0493 µM | GR50, 72 h [9]: > 10 µM | GR value ([10]; 0.0001 µM): 1.09 GR | GR value ([10]; 0.0003162 µM): 0.97 GR | GR value ([10]; 0.001 µM): 0.741 GR | GR value ([10]; 0.003162 µM): 0.795 GR | GR value ([10]; 0.01 µM): 0.876 GR | GR value ([10]; 0.03162 µM): 0.76 GR | GR value ([10]; 0.1 µM): 0.647 GR | GR value ([10]; 0.3162 µM): -0.451 GR | GR value ([10]; 1 µM): -0.887 GR | GR value ([11]; 0.0001 µM): 1.11 GR | GR value ([11]; 0.0003162 µM): 0.993 GR | GR value ([11]; 0.001 µM): 1.01 GR | GR value ([11]; 0.003162 µM): 0.916 GR | GR value ([11]; 0.01 µM): 0.617 GR | GR value ([11]; 0.03162 µM): -0.616 GR | GR value ([11]; 0.1 µM): -0.644 GR | GR value ([11]; 0.3162 µM): -0.639 GR | GR value ([11]; 1 µM): -0.664 GR | GR value ([12]; 0.001 µM): 0.771 GR | GR value ([12]; 0.003162 µM): 0.514 GR | GR value ([12]; 0.01 µM): 0.439 GR | GR value ([12]; 0.03162 µM): 0.478 GR | GR value ([12]; 0.1 µM): 0.393 GR | GR value ([12]; 0.3162 µM): 0.264 GR | GR value ([12]; 1 µM): 0.133 GR | GR value ([12]; 3.162 µM): 0.0326 GR | GR value ([12]; 10 µM): -0.443 GR | GR value ([13]; 0.001 µM): 0.841 GR | GR value ([13]; 0.003162 µM): 0.69 GR | GR value ([13]; 0.01 µM): 0.764 GR | GR value ([13]; 0.03162 µM): 0.763 GR | GR value ([13]; 0.1 µM): 0.671 GR | GR value ([13]; 0.3162 µM): 0.57 GR | GR value ([13]; 1 µM): 0.582 GR | GR value ([13]; 3.162 µM): 0.527 GR | GR value ([13]; 10 µM): 0.445 GR | GR value ([14]; 0.0003162 µM): 1.07 GR | GR value ([14]; 0.001 µM): 0.996 GR | GR value ([14]; 0.003162 µM): 0.938 GR | GR value ([14]; 0.01 µM): 0.855 GR | GR value ([14]; 0.03162 µM): 0.593 GR | GR value ([14]; 0.1 µM): 0.522 GR | GR value ([14]; 0.3162 µM): 0.365 GR | GR value ([14]; 1 µM): 0.417 GR | GR value ([14]; 3.162 µM): 0.293 GR | GR value ([15]; 0.0001 µM): 1.24 GR | GR value ([15]; 0.0003162 µM): 1.06 GR | GR value ([15]; 0.001 µM): 1.06 GR | GR value ([15]; 0.003162 µM): 0.773 GR | GR value ([15]; 0.01 µM): 0.999 GR | GR value ([15]; 0.03162 µM): 0.982 GR | GR value ([15]; 0.1 µM): 0.978 GR | GR value ([15]; 0.3162 µM): 0.391 GR | GR value ([15]; 1 µM): -0.906 GR | GR value ([16]; 0.001 µM): 1.08 GR | GR value ([16]; 0.003162 µM): 0.8 GR | GR value ([16]; 0.01 µM): 0.704 GR | GR value ([16]; 0.03162 µM): 0.436 GR | GR value ([16]; 0.1 µM): 0.402 GR | GR value ([16]; 0.3162 µM): 0.259 GR | GR value ([16]; 1 µM): 0.177 GR | GR value ([16]; 3.162 µM): 0.109 GR | GR value ([16]; 10 µM): -0.164 GR | GR value ([17]; 0.0001 µM): 0.9 GR | GR value ([17]; 0.0003162 µM): 1.1 GR | GR value ([17]; 0.001 µM): 0.822 GR | GR value ([17]; 0.003162 µM): 0.987 GR | GR value ([17]; 0.01 µM): 1.1 GR | GR value ([17]; 0.03162 µM): 1.14 GR | GR value ([17]; 0.1 µM): 1.04 GR | GR value ([17]; 0.3162 µM): 0.685 GR | GR value ([17]; 1 µM): -0.604 GR
